Results on seven compounds are retold here after paper PMC10095864, “Targeting HIV-1 Reverse Transcriptase Using a Fragment-Based Approach” (Molecules, 2023).

Read-outs that look alike come from different tables or passages of the source.

In assay [1] the test system is NNRTI-binding pocket (NNIBP) of HIV-1 RT. Set-up: method as in PMID 24002095. As to conditions: cited from earlier work.
A further assay has as its target T1, His-tagged HIV-1 RT WT (Human immunodeficiency virus type 1 group M subtype B, UniProt P03367).
T1 construct: The p66/p51 HIV-1 RT heterodimer engineered with a N-terminal histidine tag; His tag (histidine tag) (N); made in house; host or cells: Escherichia coli strain M15 (vector pRT6H-PR)
In words: Surface plasmon resonance, WT RT. It counts as binding. How it is done: (§1) Compound binding to recombinant HIV-1 RT was measured by surface plasmon resonance (SPR). SPR is an optical biosensor detection method that involves passing an analyte (often a fragment) in a buffer solution over a gold surface chip with an immobilized protein (RT enzyme) and detecting the change in plasmon resonance angle which is dependent on the refractive index of the medium near the surface. As compounds bind to the target protein, the refractive index changes proportionally to the extent of binding. This can then be used to measure the association and dissociation kinetics of binding as well as the compound’s affinity for binding.
(§2) SPR assays were performed on a Biacore S200 (GE Healthcare). His-tagged RT (WT, K103N, Y181C or K103N/Y181C) was immobilized on the surface of a Biacore compatible NIHC 1500M (Xantec) chip according to manufacturer’s instructions. Following 3 injections 300 s each of 0.5 M EDTA, the chip surface was activated with a 120 s injection of 5 mM NiCl2 followed by a 2100 s injection of 130 nM RT. The final immobilization level of RT was typically 14,000–27,000 RU. SPR experiments were carried out at 25 °C using a flow rate of 50 µL/min in running buffer. The running buffer was 1.053 × (HBS pH 7.4 + 50 µM EDTA + 0.005% Tween-20). Compounds were provided as 200 mM stocks and diluted in running buffer to obtain the concentrations required for dose-response studies (0, 6.25, 12.5, 25, 50, 100 and 200 µM). Raw sensorgram data were analyzed using Biacore S200 Evaluation Software. Dose-response determinations were evaluated using a 1:1 binding model. KD values were determined by Biacore S200 Evaluation Software Version 1.0. assuming 1:1 binding. For compounds approaching saturation, Rmax was floated. For compounds with insufficient curvature, Rmax was fixed based on a control. Errors were determined as the standard error in the dose-response fit, as calculated by Biacore S200 Evaluation Software.

The target in another assay is T2, recombinant WT HIV-1 RT (Human immunodeficiency virus type 1 group M subtype B, UniProt P03367).
T2 construct: The p66/p51 HIV-1 RT heterodimer engineered with a N-terminal histidine tag; His tag (histidine tag) (N); made in house; host or cells: Escherichia coli strain M15 (vector pRT6H-PR)
In words: biochemical. The note with it: for IC50: RT Inhibition—IC50 ± SEM, WT RT DDDP activity; for Ligand efficiency (LE): binding to WT RT, LE = −1.4(logIC50)/N. On the procedure: (§3) The inhibitory activity of all compounds was evaluated in vitro in assays that measure the DNA-dependent DNA polymerase (DDDP) activity of HIV-1 RT. Compounds were tested against recombinant WT and drug-resistant HIV-1 RT mutants (K103N, Y181C or K103N/Y181C). […] The IC50 value of nevirapine was determined in parallel to control for the performance of the assay. […] These RT mutations either reduce the rate of entry of NNRTIs to the binding pocket (K103N) or remove aromatic interactions that favor binding (Y181C). Initially, compound IC50 values were determined in an assay that quantifies DDDP activity mediated by HIV-1 RT using a radiolabeled ^33PdTTP substrate and more recently using a nonradioactive PicoGreen-based spectrophotometric assay.
Recombinant HIV-1 RT: The p66/p51 HIV-1 RT heterodimer engineered with a N-terminal histidine tag was expressed from the pRT6H-PR vector (provided by Nicolas Sluis-Cremer) which is based on pRT6H-PROT [37], except that the RT coding region is derived from the infectious molecular clone xxLAI [38]. This xxLAI clone contains the HIV-1LAI backbone and is engineered with silent mutations introducing Xma I and Xba I sites in the RT coding region at nucleotide positions 40–45 and 1470 to 1475, respectively. pRT6H-PR expressing the NNRTI drug-resistant mutations K103N, Y181C and K103N/Y181C were generated by subcloning Xma I/Xba I fragments in xxLAI harboring the desired NNRTI mutations (Giacobbi NS and Sluis-Cremer 2017 AAC) into the corresponding restriction sites in the RT coding region of p6HRT-PR. RT was expressed in Escherichia coli strain M15 and purified using Ni-NTA chromatography as previously described. RT concentrations were determined spectrophotometrically at 280 nm using an extinction coefficient (e280) of 260, 450 M^−1 cm^−1.
Nevirapine was included in assays as a positive control for inhibiting RT polymerase activity. The DDDP assay was performed by first adding 25 ng of HIV-1 RT to test compound in 96-well plates followed by initiating RT polymerase activity by adding 200 ng of activated calf thymus (ACT) DNA (Sigma Aldrich), 0.2 µCi ^33P-α-dTTP (Perkin Elmer), 50 mM Tris-HCl pH 7.8 50 mM KCl, […], 50 µM dNTP mix (Bioline), 0.1 mg/mL bovine serum albumin (New England Biolabs), 0.01% IGEPAL (Sigma) and 1 mM dithiothreitol. Reactions contained 2.5% dimethyl sulfoxide (DMSO). Following incubation at 37 °C for 10 min, samples from duplicate wells were applied to Whatman DE81 ion-exchange paper (GE Healthcare); dried membranes were washed in 2X saline-sodium citrate (SSC) buffer; and incorporated counts were quantified using an FLP-2000 phosphorimager (Fujifilm) or Typhoon Trio Phosphorimager (GE Healthcare) as published. Dose–response curves were generated using PRISM GraphPad version 8 by plotting the log transformed drug concentrations against percentage inhibition of DDDP activity compared to the no drug control using non-linear regression analysis.
Non-radioactive DDDP Assay: DDDP assays were also performed using a PicoGreen based spectrophotometric assay to detect double-stranded DNA synthesized by recombinant HIV-1 RT [15]. Assays were performed as described for the […] DDDP assay except that instead of ACT, the reaction contained 40 nM of a template/primer comprising a 200 nt DNA template (5′-[…] […]-3′) annealed to a 18 nucleotide DNA primer (5′-[…]-3′), 50 mM Tris-HCl pH 7.8, 50 mM KCl, 10 mM MgCl2 and 50 µM dNTP mix.

The target of a further assay is T3, HIV-1 RT Y181C mutant (Human immunodeficiency virus type 1 group M subtype B, UniProt P03367, Y780C).
T3 construct: The p66/p51 HIV-1 RT heterodimer engineered with a N-terminal histidine tag; His tag (histidine tag) (N); made in house; host or cells: Escherichia coli strain M15 (vector pRT6H-PR)
Kind of assay: DDDP activity assay, Y181C RT mutant. The format is biochemical. As to conditions: PicoGreen or 33P radiolabeled assay, n ≥ 2, read-out: RT Inhibition—IC50 ± SEM, Y181C. How it is done: as §3
Recombinant HIV-1 RT: The p66/p51 HIV-1 RT heterodimer engineered with a N-terminal histidine tag was expressed from the pRT6H-PR vector (provided by Nicolas Sluis-Cremer) which is based on pRT6H-PROT [37], except that the RT coding region is derived from the infectious molecular clone xxLAI [38]. […] RT concentrations were determined spectrophotometrically at 280 nm using an extinction coefficient (e280) of 260, 450 M^−1 cm^−1.
Nevirapine was included in assays as a positive control for inhibiting RT polymerase activity. […] Following incubation at 37 °C for 10 min, samples from duplicate wells were applied to Whatman DE81 ion-exchange paper (GE Healthcare); dried membranes were washed in 2X saline-sodium citrate (SSC) buffer; and incorporated counts were quantified using an FLP-2000 phosphorimager (Fujifilm) or Typhoon Trio Phosphorimager (GE Healthcare) as published. […]

The target in assay [2] is T4, His-tagged HIV-1 RT Y181C (Human immunodeficiency virus type 1 group M subtype B, UniProt P03367, Y780C).
T4 construct: The p66/p51 HIV-1 RT heterodimer engineered with a N-terminal histidine tag; His tag (histidine tag) (N); made in house; host or cells: Escherichia coli strain M15 (vector pRT6H-PR)
Kind of assay: Surface plasmon resonance, Y181C RT. The note with it: ± standard error of dose–response fit, n = 1; NB = no binding observed; read-out: SPR—KD, Y181C. How it is done: as §1
SPR assays were performed on a Biacore S200 (GE Healthcare). His-tagged RT (WT, K103N, Y181C or K103N/Y181C) was immobilized on the surface of a Biacore compatible NIHC 1500M (Xantec) chip according to manufacturer’s instructions. Following 3 injections 300 s each of 0.5 M EDTA, the chip surface was activated with a 120 s injection of 5 mM NiCl2 followed by a 2100 s injection of 130 nM RT. […] Raw sensorgram data were analyzed using Biacore S200 Evaluation Software. Dose-response determinations were evaluated using a 1:1 binding model. KD values were determined by Biacore S200 Evaluation Software Version 1.0. assuming 1:1 binding. […] Errors were determined as the standard error in the dose-response fit, as calculated by Biacore S200 Evaluation Software.
In general terms: Surface plasmon resonance follows binding to a sensor surface in real time, without labels.

Assay [3] concerns the target T5, His-tagged HIV-1 RT K103N (Human immunodeficiency virus type 1 group M subtype B, UniProt P03367, K702N).
T5 construct: The p66/p51 HIV-1 RT heterodimer engineered with a N-terminal histidine tag; His tag (histidine tag) (N); made in house; host or cells: Escherichia coli strain M15 (vector pRT6H-PR)
Kind of assay: Surface plasmon resonance, K103N RT. The note with it: ± standard error of dose–response fit, n = 1; NB = no binding observed; read-out: SPR—KD, K103N. On the procedure:
as §1, §2

[4] abbreviates: WT, PicoGreen or 33P radiolabeled assay, value not marked as PicoGreen, n ≥ 2.
[5] abbreviates: read-out: SPR—KD, WT, ± standard error of dose–response fit, n = 1, NB = no binding observed.
Where [6] appears, read: WT (PicoGreen assay), nonradioactive PicoGreen assay.

As to `Cc1cc(/C=C/C#N)cc(C)c1Nc1ccnc(Nc2ccc(C#N)cc2)n1` [Rilpivirine, rilpivirine], in assay [1], the “affinity for the NNIBP” value is given as 0.73 nM.
Usually Kd stands for the equilibrium constant for the complex coming apart. As usually defined, the IC50 is the concentration needed to halve the response being measured. Consider `CCOC(=O)c1cnn2cccc(C)c12` [compound 2, Ethyl 4-Methylpyrazolo[1,5-a]pyridine-3-carboxylate], for which binding at His-tagged HIV-1 RT WT was put at a Kd of 347 ± 23 µM. Besides, the IC50 on recombinant WT HIV-1 RT (setting [4]) was 433 ± 166 µM; on HIV-1 RT Y181C mutant, more than 333 µM. In addition, at recombinant WT HIV-1 RT, the “Ligand efficiency (LE)” value was found to be 0.31 kcal/mol/HA.
Consider `CCOC(=O)c1cnn2c(C)cccc12` [compound 5, Ethyl 7-Methylpyrazolo[1,5-a]pyridine-3-carboxylate], for which, at His-tagged HIV-1 RT WT (setting [5]), the Kd was more than 200 µM. For the same compound, the IC50 on recombinant WT HIV-1 RT (setting [4]) was 470 ± 95 µM; at HIV-1 RT Y181C mutant it was more than 333 µM. Moreover, the “Ligand efficiency (LE)” value on recombinant WT HIV-1 RT was 0.31 kcal/mol/HA.
For `CCOC(=O)c1cnn2ccc(N)cc12` [compound 8, Ethyl 5-Aminopyrazolo[1,5-a]pyridine-3-carboxylate], the Kd came to 610 ± 32 µM in assay [2], 522 ± 27 µM on His-tagged HIV-1 RT WT and 621 ± 36 µM in assay [3]. Moreover, the IC50 at recombinant WT HIV-1 RT (setting [4]) is more than 1000 µM.
In the case of `CCOC(=O)c1cnn2c(C)ccc(Br)c12` [compound 9, Ethyl 4-Bromo-7-methylpyrazolo[1,5-a]pyridine-3-carboxylate], on His-tagged HIV-1 RT WT (setting [5]), the Kd is more than 200 µM. The IC50 on recombinant WT HIV-1 RT (setting [6]) came out at 155 ± 19 µM. Also, on recombinant WT HIV-1 RT, the “Ligand efficiency (LE)” value is 0.33 kcal/mol/HA.
Turning to `CCOC(=O)c1cnn2cc(OC)cc(Br)c12` [compound 10, Ethyl 4-Bromo-6-methoxypyrazolo[1,5-a]pyridine-3-carboxylate], the Kd at His-tagged HIV-1 RT WT turned out to be 1570 ± 105 µM; in assay [3], 757 ± 81 µM. Moreover, the half-inhibitory concentration (IC50) at recombinant WT HIV-1 RT (setting [6]) stood at 315 ± 19 µM. The “Ligand efficiency (LE)” value at recombinant WT HIV-1 RT stood at 0.29 kcal/mol/HA.
Turning to `CCOC(=O)c1cnn2c(C)ccc(F)c12` [compound 11, Ethyl 4-Fluoro-7-methylpyrazolo[1,5-a]pyridine-3-carboxylate], the Kd on His-tagged HIV-1 RT WT (setting [5]) was more than 200 µM. Moreover, the concentration for half-maximal inhibition (IC50) at recombinant WT HIV-1 RT (setting [6]) is more than 1000 µM.
